System: NCI-H196 complex spheroid growth, percent test/control
Test: Anticancer human tumor NCI-H196 cell line growth inhibition [AhR];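 note: seven days of drug exposure starting three days after plating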;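 for viability, T/C: 100% = DMSO vehicle control wells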
Details: for IC50: curve of first compound; for viability, T/C: stronger effect = lower value
How it was run: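 Complex tumor spheroids co-cultured with HUVEC and human MSC stroma; AhR antagonists tested in combination with standard-of-care and investigational agents. Top concentration at or near clinical Cmax (else 10 microM), half-log dilutions; growth expressed as percent test/control.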

[1] = second compound 0.1 µM, first compound 0.0316 µM
[2] = second compound 0.1 µM, first compound 0.1 µM
[3] = second compound 0.1 µM, first compound 0.316 µM
[4] = second compound 0.1 µM, first compound 1 µM
[5] = second compound 0.316 µM, first compound 0.0316 µM
[6] = second compound 0.316 µM, first compound 0.1 µM
[7] = second compound 0.316 µM, first compound 0.316 µM
[8] = second compound 0.316 µM, first compound 1 µM
[9] = second compound 1 µM, first compound 0.0316 µM
[10] = second compound 1 µM, first compound 0.1 µM
[11] = second compound 1 µM, first compound 0.316 µM
[12] = second compound 1 µM, first compound 1 µM
[13] = second compound 3.16 µM, first compound 0.0316 µM
[14] = second compound 3.16 µM, first compound 0.1 µM
[15] = second compound 3.16 µM, first compound 0.316 µM
[16] = second compound 3.16 µM, first compound 1 µM
[17] = second compound 10 µM, first compound 0.0316 µM
[18] = second compound 10 µM, first compound 0.1 µM
[19] = second compound 10 µM, first compound 0.316 µM
[20] = second compound 10 µM, first compound 1 µM

Row | SMILES | IC50 (second compound 0.1 µM) [µM] | IC50 (second compound 0.316 µM) [µM] | IC50 (second compound 1 µM) [µM] | IC50 (second compound 3.16 µM) [µM] | IC50 (second compound 10 µM) [µM] | viability, T/C [1] [%] | viability, T/C [2] [%] | viability, T/C [3] [%] | viability, T/C [4] [%] | viability, T/C [5] [%] | viability, T/C [6] [%] | viability, T/C [7] [%] | viability, T/C [8] [%] | viability, T/C [9] [%] | viability, T/C [10] [%] | viability, T/C [11] [%] | viability, T/C [12] [%] | viability, T/C [13] [%] | viability, T/C [14] [%] | viability, T/C [15] [%] | further results
1 | O=C(c1cc(Cc2n[nH]c(=O)c3ccccc23)ccc1F)N1CCN(C(=O)C2CC2)CC1 + Cc1cncc(-c2nc(NCCc3c[nH]c4ccccc34)c3ncn(C(C)C)c3n2)c1 | > 10 | > 10 | > 10 | > 10 | > 10 | 103 | 102 | 96.1 | 96 | 101 | 101 | 103 | 94 | 105 | 90.5 | 105 | 93.4 | 113 | 106 | 98.1 | viability, T/C (second compound 0.1 µM, first compound 3.16 µM): 98.8%; viability, T/C (second compound 0.1 µM, first compound 10 µM): 87.4%; viability, T/C (second compound 0.316 µM, first compound 3.16 µM): 107%; viability, T/C (second compound 0.316 µM, first compound 10 µM): 91.2%; viability, T/C (second compound 1 µM, first compound 3.16 µM): 101%; viability, T/C (second compound 1 µM, first compound 10 µM): 97.7%; viability, T/C [16]: 99.7%; viability, T/C (second compound 3.16 µM, first compound 3.16 µM): 103%; viability, T/C (second compound 3.16 µM, first compound 10 µM): 99.6%; viability, T/C [17]: 81.9%; viability, T/C [18]: 91.7%; viability, T/C [19]: 87.4%; viability, T/C [20]: 88.7%; viability, T/C (second compound 10 µM, first compound 3.16 µM): 86.9%; viability, T/C (second compound 10 µM, first compound 10 µM): 93.8%
2 | CC1COCCN1c1cc(-c2ccnn2C)c2ccnc(-c3ccn[nH]3)c2n1 (stereo not given) + Cc1cncc(-c2nc(NCCc3c[nH]c4ccccc34)c3ncn(C(C)C)c3n2)c1 | > 1 | > 1 | > 1 | > 1 | > 1 | 86.5 | 70 | 62.4 | 60.7 | 86.7 | 71.2 | 64.5 | 52.7 | 96.4 | 79.4 | 70.9 | 57.9 | 101 | 88.8 | 77.6 | viability, T/C (second compound 0.1 µM, first compound 0.00316 µM): 105%; viability, T/C (second compound 0.1 µM, first compound 0.01 µM): 96.6%; viability, T/C (second compound 0.316 µM, first compound 0.00316 µM): 95.5%; viability, T/C (second compound 0.316 µM, first compound 0.01 µM): 94.1%; viability, T/C (second compound 1 µM, first compound 0.00316 µM): 103%; viability, T/C (second compound 1 µM, first compound 0.01 µM): 97.7%; viability, T/C (second compound 3.16 µM, first compound 0.00316 µM): 106%; viability, T/C (second compound 3.16 µM, first compound 0.01 µM): 123%; viability, T/C [16]: 58.2%; viability, T/C (second compound 10 µM, first compound 0.00316 µM): 68.1%; viability, T/C (second compound 10 µM, first compound 0.01 µM): 80.7%; viability, T/C [17]: 75.7%; viability, T/C [18]: 66%; viability, T/C [19]: 80%; viability, T/C [20]: 71.8%
